Source: PubChem BioAssay AID248 (DTP/NCI, 2004)
Several values for one entry are separate records, joined by “and”; a condition that tells them apart may be missing. Equal entries are not always repeated. Inconclusive results and toxic doses are left out. Rule as the data show it: active = T/C of 150% or more; inactive = T/C below 125%. Square brackets hold non-standard residues; d marks the D form. Peptide text beside a SMILES is read from it. * marks the point of attachment. ξ: configuration not given here. Hexanoyl = CCCCCC(=O)*; ξP = O=C(O)C1CCCN1

Test system: L1210 leukemia ip in BDF1 mice, survival T/C
Assay: NCI In Vivo Anticancer Drug Screen. Data for tumor model L1210 Leukemia (intraperitoneal) in B6D2F1 (BDF1) mice
Settings: endpoint: mean survival time, higher = longer survival
Procedure, shortened: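 Ratio derived from survival: compound-dosed mice over vehicle-dosed mice, all bearing a transplantable tumor.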

[1] = dose: 50.0 mg/kg/injection, schedule: Q01DX009 (ip), vehicle: saline
[2] = dose: 100.0 mg/kg/injection, schedule: Q01DX009 (ip), vehicle: saline
[3] = dose: 200.0 mg/kg/injection, schedule: Q01DX009 (ip), vehicle: saline
[4] = dose: 50.0 mg/kg/injection, schedule: Q01DX009 (ip), vehicle: saline with Tween-80
[5] = dose: 100.0 mg/kg/injection, schedule: Q01DX009 (ip), vehicle: Klucel (hydroxypropylcellulose) (HPC)
[6] = dose: 100.0 mg/kg/injection, schedule: Q01DX009 (ip), vehicle: saline with Tween-80
[7] = dose: 100.0 mg/kg/injection, schedule: Q04DX003 (ip), vehicle: Klucel (hydroxypropylcellulose) (HPC)
[8] = dose: 200.0 mg/kg/injection, schedule: Q01DX009 (ip), vehicle: Klucel (hydroxypropylcellulose) (HPC)
[9] = dose: 200.0 mg/kg/injection, schedule: Q01DX009 (ip), vehicle: saline with Tween-80
[10] = dose: 200.0 mg/kg/injection, schedule: Q04DX003 (ip), vehicle: Klucel (hydroxypropylcellulose) (HPC)
[11] = dose: 400.0 mg/kg/injection, schedule: Q04DX003 (ip), vehicle: Klucel (hydroxypropylcellulose) (HPC)
[12] = dose: 100.0 mg/kg/injection, schedule: Q01DX001 (ip), vehicle: saline
[13] = dose: 200.0 mg/kg/injection, schedule: Q01DX001 (ip), vehicle: saline
[14] = dose: 400.0 mg/kg/injection, schedule: Q01DX001 (ip), vehicle: saline
[15] = dose: 100.0 mg/kg/injection, schedule: Q04DX002 (ip), vehicle: Klucel (hydroxypropylcellulose) (HPC)
[16] = dose: 200.0 mg/kg/injection, schedule: Q04DX002 (ip), vehicle: Klucel (hydroxypropylcellulose) (HPC)
[17] = dose: 400.0 mg/kg/injection, schedule: Q01DX009 (ip), vehicle: Klucel (hydroxypropylcellulose) (HPC)
[18] = dose: 400.0 mg/kg/injection, schedule: Q04DX002 (ip), vehicle: Klucel (hydroxypropylcellulose) (HPC)
[19] = dose: 25.0 mg/kg/injection, schedule: Q01DX009 (ip), vehicle: saline with Tween-80
[20] = dose: 100.0 mg/kg/injection, schedule: Q04DX003 (ip), vehicle: saline with Tween-80
[21] = dose: 200.0 mg/kg/injection, schedule: Q04DX003 (ip), vehicle: saline with Tween-80
[22] = dose: 400.0 mg/kg/injection, schedule: Q04DX003 (ip), vehicle: saline with Tween-80
[23] = dose: 400.0 mg/kg/injection, schedule: Q01DX009 (ip), vehicle: saline with Tween-80
[24] = dose: 400.0 mg/kg/injection, schedule: Q01DX009 (ip), vehicle: saline

Measured: T/C

CCOS(C)(=O)=O
inactive: [1] 98 % of control | [2] 101 % of control | dose: 100.0 mg/kg/injection, schedule: Q04DX003 (ip), vehicle: alcohol 102 % of control | [3] 104 % of control | dose: 200.0 mg/kg/injection, schedule: Q04DX003 (ip), vehicle: alcohol 102 % of control

COc1ccccc1-n1c(=O)c(N=Nc2ccccc2C)c(O)n(-c2ccccc2Cl)c1=S
inactive: dose: 50.0 mg/kg/injection, schedule: Q01DX001 (ip), vehicle: Klucel (hydroxypropylcellulose) (HPC) 107 % of control | dose: 100.0 mg/kg/injection, schedule: Q01DX001 (ip), vehicle: Klucel (hydroxypropylcellulose) (HPC) 102 % of control | dose: 200.0 mg/kg/injection, schedule: Q01DX001 (ip), vehicle: Klucel (hydroxypropylcellulose) (HPC) 110 % of control

O=C(O)CCC(=O)c1cccc([N+](=O)[O-])c1
inactive: [4] 103 % of control | [5] 95 % of control | [6] 107 % of control | [7] 91 % of control | [8] 103 % of control | [9] 87 % of control | [10] 94 % of control | [11] 94 % of control

CCOC(=O)c1ccc(NC(=O)Nc2cccc(Cl)c2)cc1
inactive: dose: 3.0 mg/kg/injection, schedule: Q01DX009 (ip), vehicle: Klucel (hydroxypropylcellulose) (HPC) 94 % of control | dose: 6.0 mg/kg/injection, schedule: Q01DX009 (ip), vehicle: Klucel (hydroxypropylcellulose) (HPC) 107 % of control | dose: 12.0 mg/kg/injection, schedule: Q01DX009 (ip), vehicle: Klucel (hydroxypropylcellulose) (HPC) 94 % of control | dose: 25.0 mg/kg/injection, schedule: Q01DX009 (ip), vehicle: Klucel (hydroxypropylcellulose) (HPC) 101 % of control | [5] 93 % of control

NC(=S)c1nnn(Cc2ccccc2)c1N
inactive: [12] 100 % of control | [13] 101 % of control | [14] 102 % of control

Cc1ccc(C)n1CCn1c(C)ccc1C
inactive: [5] 91 % of control | [15] 88 % of control | [8] 94 % of control | [16] 93 % of control | [17] 91 % of control | [18] 96 % of control

Cc1cc(C)c(C(=O)CCN(C)C)c(C)c1
inactive: dose: 25.0 mg/kg/injection, schedule: Q01DX009 (ip), vehicle: saline 103 % of control | dose: 25.0 mg/kg/injection, schedule: Q04DX003 (ip), vehicle: saline 93 % of control | [1] 96 % of control | dose: 50.0 mg/kg/injection, schedule: Q04DX003 (ip), vehicle: saline 96 % of control | dose: 100.0 mg/kg/injection, schedule: Q04DX003 (ip), vehicle: saline 93 % of control and 104 % of control

CCCCCC(=O)NCC(=O)N1CCCC1C(=O)O (stereo unspecified) (Hexanoyl-Gly-[ξP]-OH)
inactive: [12] 95 % of control | [13] 107 % of control | [14] 98 % of control

CC(=O)OCC1OC(S[As](C)SC2OC(COC(C)=O)C(OC(C)=O)C(OC(C)=O)C2OC(C)=O)C(OC(C)=O)C(OC(C)=O)C1OC(C)=O (stereo unspecified)
inactive: dose: 6.25 mg/kg/injection, schedule: Q01DX009 (ip), vehicle: saline with Tween-80 101 % of control | dose: 12.5 mg/kg/injection, schedule: Q01DX009 (ip), vehicle: saline with Tween-80 116 % of control | [19] 116 % of control

Cc1ccc(N=Nc2ccc(C)cc2NC(=O)c2ccc(Cl)c(Cl)c2)cc1
inactive: [15] 120 % of control | [16] 103 % of control | [18] 97 % of control

CCCCc1nc2c(c(=O)n(C)c(=O)n2C)n1C
inactive: dose: 50.0 mg/kg/injection, schedule: Q01DX001 (ip), vehicle: saline 96 % of control | [12] 96 % of control | [13] 102 % of control

CC12C(=O)OC(=O)C1(C)C1OC2C(Br)C1Br (stereo unspecified)
inactive: [19] 95 % of control | [4] 97 % of control | [6] 88 % of control

Cc1cc(C)n(/N=C/c2ccc([N+](=O)[O-])o2)c(=O)c1C#N
inactive: dose: 100.0 mg/kg/injection, schedule: Q01DX001 (ip), vehicle: carboxymethylcellulose (CMC) 88 % of control | dose: 200.0 mg/kg/injection, schedule: Q01DX001 (ip), vehicle: carboxymethylcellulose (CMC) 91 % of control | dose: 400.0 mg/kg/injection, schedule: Q01DX001 (ip), vehicle: carboxymethylcellulose (CMC) 88 % of control

O=[N+]([O-])c1ccc2c(c1)C(C(Cl)(Cl)Cl)OC(C(Cl)(Cl)Cl)O2 (stereo unspecified)
inactive: [5] 95 % of control | [7] 96 % of control | [8] 95 % of control | [10] 93 % of control | [17] 95 % of control | [11] 95 % of control

Cc1c(N)nc(C(CC(N)=O)NCC(N)C(N)=O)nc1C(=O)NC(C(=O)NC(C)C(O)C(C)C(=O)NC(C(=O)NCCc1nc(-c2nc(C(=O)NCCC[S+](C)C)cs2)cs1)C(C)O)C(OC1OC(CO)C(O)C(O)C1OC1OC(CO)C(O)C(OC(N)=O)C1O)c1cnc[nH]1 (stereo unspecified)
inactive: dose: 1.0 mg/kg/injection, schedule: Q01DX009 (ip), vehicle: Klucel (hydroxypropylcellulose) (HPC) 106 % of control | dose: 2.0 mg/kg/injection, schedule: Q01DX009 (ip), vehicle: Klucel (hydroxypropylcellulose) (HPC) 95 % of control | dose: 4.0 mg/kg/injection, schedule: Q01DX009 (ip), vehicle: Klucel (hydroxypropylcellulose) (HPC) 107 % of control | dose: 8.0 mg/kg/injection, schedule: Q01DX009 (ip), vehicle: Klucel (hydroxypropylcellulose) (HPC) 101 % of control

CC(=O)N1c2ccccc2Sc2cc(C(O)(C(F)(F)F)C(F)(F)F)ccc21
inactive: [19] 95 % of control | [4] 95 % of control | dose: 50.0 mg/kg/injection, schedule: Q04DX003 (ip), vehicle: saline with Tween-80 95 % of control | [6] 95 % of control | [20] 91 % of control | [21] 91 % of control

O=[N+]([O-])c1ccc(Br)o1
inactive: dose: 6.25 mg/kg/injection, schedule: Q04DX003 (ip), vehicle: saline with Tween-80 110 % of control | dose: 12.5 mg/kg/injection, schedule: Q04DX003 (ip), vehicle: saline with Tween-80 101 % of control | dose: 25.0 mg/kg/injection, schedule: Q04DX003 (ip), vehicle: saline with Tween-80 105 % of control

O=C(CC(c1ccccc1)c1c(O)c2ccccc2oc1=O)c1ccccc1 (stereo unspecified)
inactive: dose: 0.5 mg/kg/injection, schedule: Q01DX009 (ip), vehicle: saline with Tween-80 95 % of control | dose: 1.0 mg/kg/injection, schedule: Q01DX009 (ip), vehicle: saline with Tween-80 97 % of control | dose: 2.0 mg/kg/injection, schedule: Q01DX009 (ip), vehicle: saline with Tween-80 100 % of control | dose: 4.0 mg/kg/injection, schedule: Q01DX009 (ip), vehicle: saline with Tween-80 104 % of control | [20] 94 % of control | [21] 91 % of control | [22] 101 % of control

O=C(OCCCCCCl)c1ccccc1
inactive: [6] 100 % of control | [20] 106 % of control | [9] 104 % of control | [21] 97 % of control | [23] 98 % of control | [22] 95 % of control

O=C(O)CCCc1ccc(Cl)cc1
inactive: [1] 113 % of control | [2] 105 % of control | [3] 96 % of control

O=C(Cn1ccc(O)cc1=O)c1ccco1
inactive: [6] 108 % of control | [20] 96 % of control | [9] 104 % of control | [21] 94 % of control | [23] 101 % of control | [22] 97 % of control

O=C(Cn1ccc(O)cc1=O)c1cccs1
inactive: [6] 102 % of control | [20] 101 % of control | [9] 100 % of control | [21] 100 % of control | [23] 98 % of control | [22] 100 % of control

CCOC(=O)C1C(C(=O)c2ccc(C)cc2)C2(Cl)C(Cl)=C(Cl)C1(Cl)C2(Cl)Cl (stereo unspecified)
inactive: [2] 96 % of control | [3] 91 % of control | [24] 98 % of control

C#CCOCCC(C(=O)OCC)C(=O)OCC
inactive: [2] 96 % of control | [3] 91 % of control | [24] 102 % of control
